Measurements: patent publication US11717503B2 (priority 2020, dated 2023)
Values joined by “and” are separate entries in the source; they are usually repeats but may differ in a detail not shown here. Equal values may be shown once.

How the values were obtained:
Parameters in all cases: species or system C57BL/6 mice
[1] = test system: H7N9 avian influenza virus; conditions: mouse, in vivo
[2] = test system: H7N9 avian influenza virus; conditions: mouse, in vivo, po
[3] = test system: H7N9 avian influenza virus; conditions: mouse, in vivo; remark: listed apart in the source
IFN-γ = conditions: mouse, in vivo
IL-1β = conditions: mouse, in vivo, po

| Compound | Effect on weight loss caused by H7N9 infection (in words) [1] | Mortality [2] | Number of survivals 15 days post infection [2] | Survival rate [2] | Effect on proliferation of influenza virus in the lungs (in words) [3] | Virus content in the lungs (virus titer) ([3]; po) | IFN-γ level vs control group (in words) (IFN-γ) | IFN-γ content in lung homogenate (IFN-γ; po) | IL-1β content in lung homogenate (IL-1β) |
| --- | --- | --- | --- | --- | --- | --- | --- | --- | --- |
| CC[C@H](C)[C@H](N)C(=O)O [Isoleucine, isoleucine] | did not improve the weight loss | 100% | 0 | 0% | – | – | – | – | – |
| CC(C)[C@H](N)C(=O)O [Valine, valine] | alleviated the weight loss | 60% | 4 | 40% | significantly reduce the proliferation | 4.168 ± 0.614 log10EID50/ml | significantly higher | 121.927 ± 10.241 pg/mL and 108.583 ± 10.700 pg/mL | 691.546 ± 125.531 pg/mL and 512.836 ± 104.971 pg/mL |
| NCCCC[C@H](N)C(=O)O [Lysine, lysine] | alleviated the weight loss | 90% | 1 | 10% | – | – | – | – | – |
